Source: ChEMBL document CHEMBL1909046, “DrugMatrix in vitro pharmacology data”

What was measured:
[1] = DRUGMATRIX: Interleukin IL-1 radioligand binding (ligand: [125I] interleukin 1beta); format: cell membranes, Membrane; conditions: nih3t3; Not Active = under 50% inhibition at 10 µM
[2] = biological target: T1, Type-2 angiotensin II receptor (Homo sapiens, UniProt P50052); format: cell-based; conditions: cho-k1; further: in other assays of this panel Not Active means under 50% inhibition at 10 µM
T1 sequence (P50052 whole entry): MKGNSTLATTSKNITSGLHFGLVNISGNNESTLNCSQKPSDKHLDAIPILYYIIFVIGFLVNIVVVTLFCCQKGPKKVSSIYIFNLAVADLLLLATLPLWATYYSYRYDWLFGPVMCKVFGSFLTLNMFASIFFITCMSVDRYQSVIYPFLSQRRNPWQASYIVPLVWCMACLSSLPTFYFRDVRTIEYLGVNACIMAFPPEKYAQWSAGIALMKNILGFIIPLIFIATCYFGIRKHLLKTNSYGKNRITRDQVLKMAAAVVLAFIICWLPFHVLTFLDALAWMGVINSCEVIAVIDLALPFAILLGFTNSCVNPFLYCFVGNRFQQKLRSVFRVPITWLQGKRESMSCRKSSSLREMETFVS

[3] = biological target: Prostaglandin G/H synthase 1 (Homo sapiens, UniProt P23219); assay: biochemical; format: tissue-based, Platelet; conditions: platelet;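 further: inhibition of COX-1 enzyme activity, with arachidonic acid supplied as substrate; in other assays of this panel Not Active means under 50% inhibition at 10 µM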
Chain of Prostaglandin G/H synthase 1 (P23219 whole entry): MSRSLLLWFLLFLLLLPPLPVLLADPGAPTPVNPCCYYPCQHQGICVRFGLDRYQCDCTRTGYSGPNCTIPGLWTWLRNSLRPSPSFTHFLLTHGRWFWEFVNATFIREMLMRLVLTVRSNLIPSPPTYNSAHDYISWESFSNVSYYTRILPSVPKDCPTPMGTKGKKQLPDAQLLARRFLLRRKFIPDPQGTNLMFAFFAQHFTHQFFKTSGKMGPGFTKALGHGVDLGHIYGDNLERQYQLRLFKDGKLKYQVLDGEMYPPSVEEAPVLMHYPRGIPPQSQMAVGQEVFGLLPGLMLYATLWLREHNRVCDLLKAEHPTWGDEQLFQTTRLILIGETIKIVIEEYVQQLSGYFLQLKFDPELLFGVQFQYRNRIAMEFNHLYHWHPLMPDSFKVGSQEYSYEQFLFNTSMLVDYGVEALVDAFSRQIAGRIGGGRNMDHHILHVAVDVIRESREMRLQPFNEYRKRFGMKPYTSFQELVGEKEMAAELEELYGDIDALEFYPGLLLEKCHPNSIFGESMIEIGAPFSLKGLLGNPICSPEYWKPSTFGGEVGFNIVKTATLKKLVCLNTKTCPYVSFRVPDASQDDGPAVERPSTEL

[4] = biological target: T2, 3-hydroxy-3-methylglutaryl-coenzyme A reductase (Homo sapiens, UniProt P04035); parameters: species or system Escherichia coli;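 further: enzyme inhibition assay of HMG-CoA reductase using radiolabeled [14C]HMG-CoA as substrate; in other assays of this panel Not Active means under 50% inhibition at 10 µM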
T2 sequence (P04035 whole entry): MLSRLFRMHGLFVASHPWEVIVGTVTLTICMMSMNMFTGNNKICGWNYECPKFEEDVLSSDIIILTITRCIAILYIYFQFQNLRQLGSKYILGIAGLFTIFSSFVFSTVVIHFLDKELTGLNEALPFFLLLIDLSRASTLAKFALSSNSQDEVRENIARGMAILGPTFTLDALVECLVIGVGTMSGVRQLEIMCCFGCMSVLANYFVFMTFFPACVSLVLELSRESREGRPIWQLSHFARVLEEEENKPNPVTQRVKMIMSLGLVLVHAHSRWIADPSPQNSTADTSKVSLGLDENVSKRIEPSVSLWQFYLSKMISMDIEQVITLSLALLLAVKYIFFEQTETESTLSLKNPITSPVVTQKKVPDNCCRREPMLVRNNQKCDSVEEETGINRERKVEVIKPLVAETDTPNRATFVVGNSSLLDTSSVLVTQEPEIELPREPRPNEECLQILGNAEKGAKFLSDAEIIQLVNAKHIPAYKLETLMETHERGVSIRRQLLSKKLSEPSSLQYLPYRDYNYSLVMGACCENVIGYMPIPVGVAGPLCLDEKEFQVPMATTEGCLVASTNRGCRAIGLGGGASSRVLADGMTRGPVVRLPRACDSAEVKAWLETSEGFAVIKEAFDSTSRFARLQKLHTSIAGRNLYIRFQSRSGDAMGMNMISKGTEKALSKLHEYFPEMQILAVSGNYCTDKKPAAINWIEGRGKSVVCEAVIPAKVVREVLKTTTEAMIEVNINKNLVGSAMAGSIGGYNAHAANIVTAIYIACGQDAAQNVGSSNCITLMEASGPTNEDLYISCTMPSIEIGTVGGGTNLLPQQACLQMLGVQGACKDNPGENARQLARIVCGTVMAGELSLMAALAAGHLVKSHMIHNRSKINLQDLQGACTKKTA

[5] = biological target: Vascular endothelial growth factor receptor 1 (Homo sapiens, UniProt P17948); format: cell-based; conditions: huvec; further: in other assays of this panel Not Active means under 50% inhibition at 10 µM
Chain of Vascular endothelial growth factor receptor 1 (P17948 whole entry): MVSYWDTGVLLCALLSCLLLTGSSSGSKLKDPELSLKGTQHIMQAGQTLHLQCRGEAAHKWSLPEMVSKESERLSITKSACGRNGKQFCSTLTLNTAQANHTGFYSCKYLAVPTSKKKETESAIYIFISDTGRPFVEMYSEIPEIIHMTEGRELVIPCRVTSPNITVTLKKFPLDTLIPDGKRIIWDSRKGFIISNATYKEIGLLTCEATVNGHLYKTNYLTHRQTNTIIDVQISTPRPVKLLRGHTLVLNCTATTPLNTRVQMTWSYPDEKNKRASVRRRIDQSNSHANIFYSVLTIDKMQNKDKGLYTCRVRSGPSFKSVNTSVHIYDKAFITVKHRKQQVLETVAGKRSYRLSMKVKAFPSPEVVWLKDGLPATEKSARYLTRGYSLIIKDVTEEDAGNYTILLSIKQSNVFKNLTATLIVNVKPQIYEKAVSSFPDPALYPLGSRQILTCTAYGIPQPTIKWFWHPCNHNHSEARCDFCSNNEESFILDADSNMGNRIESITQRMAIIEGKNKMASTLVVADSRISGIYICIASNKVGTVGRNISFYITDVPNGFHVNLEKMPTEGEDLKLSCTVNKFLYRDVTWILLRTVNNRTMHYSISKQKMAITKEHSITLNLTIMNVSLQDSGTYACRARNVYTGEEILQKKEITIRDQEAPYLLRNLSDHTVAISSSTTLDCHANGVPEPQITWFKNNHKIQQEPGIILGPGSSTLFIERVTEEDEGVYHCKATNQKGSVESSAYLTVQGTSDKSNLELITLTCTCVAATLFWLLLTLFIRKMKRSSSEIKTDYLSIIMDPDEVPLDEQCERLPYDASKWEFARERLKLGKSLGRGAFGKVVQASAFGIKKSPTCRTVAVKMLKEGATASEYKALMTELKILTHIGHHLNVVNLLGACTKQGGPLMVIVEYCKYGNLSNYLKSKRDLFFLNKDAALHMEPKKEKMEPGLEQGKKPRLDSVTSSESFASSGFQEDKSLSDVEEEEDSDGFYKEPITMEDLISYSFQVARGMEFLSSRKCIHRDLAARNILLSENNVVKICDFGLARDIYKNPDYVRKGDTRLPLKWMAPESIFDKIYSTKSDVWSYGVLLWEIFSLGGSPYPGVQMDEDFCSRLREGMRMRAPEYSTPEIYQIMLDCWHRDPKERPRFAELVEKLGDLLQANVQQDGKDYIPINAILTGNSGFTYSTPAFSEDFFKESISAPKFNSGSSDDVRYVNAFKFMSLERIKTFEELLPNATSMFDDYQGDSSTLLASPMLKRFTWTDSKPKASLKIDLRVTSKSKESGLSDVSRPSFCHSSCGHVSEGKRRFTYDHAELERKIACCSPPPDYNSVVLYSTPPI

[6] = biological target: Beta-1 adrenergic receptor (Homo sapiens, UniProt P08588); assay: DRUGMATRIX: Adrenergic beta1 radioligand binding (ligand: [125I] Cyanopindolol); format: cell membranes, CHO-K1, Membrane; conditions: Not Active = under 50% inhibition at 10 µM
Chain of Beta-1 adrenergic receptor (P08588 whole entry): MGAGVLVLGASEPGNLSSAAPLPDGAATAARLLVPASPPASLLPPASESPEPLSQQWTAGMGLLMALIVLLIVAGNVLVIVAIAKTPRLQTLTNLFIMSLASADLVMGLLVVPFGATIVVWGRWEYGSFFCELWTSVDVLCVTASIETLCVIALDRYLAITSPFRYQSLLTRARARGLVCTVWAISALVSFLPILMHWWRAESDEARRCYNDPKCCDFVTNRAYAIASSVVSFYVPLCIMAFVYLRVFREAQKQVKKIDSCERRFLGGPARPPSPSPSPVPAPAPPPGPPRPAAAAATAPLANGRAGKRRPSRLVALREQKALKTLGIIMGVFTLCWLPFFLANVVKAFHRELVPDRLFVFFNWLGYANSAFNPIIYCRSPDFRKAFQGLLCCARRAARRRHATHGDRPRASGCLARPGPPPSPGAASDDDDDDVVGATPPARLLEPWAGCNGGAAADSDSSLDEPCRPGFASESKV

[7] = biological target: T3, Alpha-2C adrenergic receptor (Homo sapiens, UniProt P18825); assay: DRUGMATRIX: Adrenergic Alpha-2C radioligand binding (ligand: [3H] MK-912); format: cell membranes, Sf9, Membrane
T3 sequence (P18825 whole entry): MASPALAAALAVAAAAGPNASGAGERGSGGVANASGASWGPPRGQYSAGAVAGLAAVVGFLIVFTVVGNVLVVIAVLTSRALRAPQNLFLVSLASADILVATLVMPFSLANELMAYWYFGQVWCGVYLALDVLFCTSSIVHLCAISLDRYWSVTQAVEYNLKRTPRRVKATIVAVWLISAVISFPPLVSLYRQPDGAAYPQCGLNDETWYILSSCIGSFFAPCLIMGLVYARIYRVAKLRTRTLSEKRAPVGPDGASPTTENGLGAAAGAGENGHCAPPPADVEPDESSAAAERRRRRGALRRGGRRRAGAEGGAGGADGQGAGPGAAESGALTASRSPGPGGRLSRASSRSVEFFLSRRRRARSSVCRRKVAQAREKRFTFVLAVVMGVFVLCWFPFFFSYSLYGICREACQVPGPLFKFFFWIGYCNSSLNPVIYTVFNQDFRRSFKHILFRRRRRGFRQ

Row | SMILES | IC50 [1] | Ki [1] | IC50 [2] | IC50 [3] | IC50 [4] | IC50 [5] | IC50 ([6]; cho-k1) | IC50 ([7]; sf9) | IC50 ([4]; read-out: IC50) [nM] | IC50 ([7]; read-out: IC50) [nM] | Ki ([7]; read-out: Ki) [nM] | IC50 ([6]; read-out: IC50) [nM] | Ki ([6]; read-out: Ki) [nM]
1 | CC(N)C12CC3CC(CC(C3)C1)C2 (centres undefined) [RIMANTADINE] | Not Active | Not Active | Not Active | Not Active | Not Active | Not Active | Not Active | Not Active | – | – | – | – | –
2 | CS(=O)(=O)c1ccc(C2=C(c3ccccc3)C(=O)OC2)cc1 [ROFECOXIB] | Not Active | Not Active | Not Active | – | Not Active | Not Active | Not Active | Not Active | – | – | – | – | –
3 | CCOc1cc(N)c(Cl)cc1C(=O)NCC1CN(Cc2ccc(F)cc2)CCO1 (centres undefined) [MOSAPRIDE] | Not Active | Not Active | Not Active | Not Active | Not Active | Not Active | Not Active | Not Active | – | – | – | – | –
4 | Cc1ccnc(NS(=O)(=O)c2ccc(N)cc2)n1 [SULFAMERAZINE] | Not Active | Not Active | Not Active | Not Active | Not Active | Not Active | Not Active | Not Active | – | – | – | – | –
5 | OC[C@@H](O)[C@@H](O)[C@H](O)[C@H](O)CO [MANNITOL] | Not Active | Not Active | Not Active | Not Active | Not Active | Not Active | Not Active | Not Active | – | – | – | – | –
6 | Oc1ccc(/C=C/c2cc(O)cc(O)c2)cc1 [RESVERATROL] | Not Active | Not Active | Not Active | – | Not Active | Not Active | Not Active | Not Active | – | – | – | – | –
7 | CC1=C(/C=C/C(C)=C/C=C/C(C)=C/C(=O)O)C(C)(C)CCC1 [TRETINOIN] | Not Active | Not Active | Not Active | Not Active | Not Active | Not Active | Not Active | Not Active | – | – | – | – | –
8 | C=CCc1ccc2c(c1)OCO2 [SAFROLE] | Not Active | Not Active | Not Active | Not Active | Not Active | Not Active | Not Active | Not Active | – | – | – | – | –
9 | CCN(CC)N=O [N-NITROSODIETHYLAMINE] | Not Active | Not Active | Not Active | Not Active | Not Active | Not Active | Not Active | Not Active | – | – | – | – | –
10 | CCN1CCCC1CNC(=O)c1cc(S(N)(=O)=O)ccc1OC (centres undefined) [SULPIRIDE] | Not Active | Not Active | Not Active | Not Active | Not Active | Not Active | Not Active | Not Active | – | – | – | – | –
11 | O=C1CC[C@@]2(O)[C@H]3Cc4ccc(O)c5c4[C@@]2(CCN3CC2CC2)[C@H]1O5 [NALTREXONE] | Not Active | Not Active | Not Active | Not Active | Not Active | Not Active | Not Active | Not Active | – | – | – | – | –
12 | C[N+]1(C)[C@@H]2C[C@@H](OC(=O)[C@H](CO)c3ccccc3)C[C@H]1[C@@H]1O[C@@H]12.[Br-] [METHSCOPOLAMINE BROMIDE] | Not Active | Not Active | Not Active | Not Active | Not Active | Not Active | Not Active | Not Active | – | – | – | – | –
13 | CCN(CC)CCNC(=O)c1cc(Cl)c(N)cc1OC [METOCLOPRAMIDE] | Not Active | Not Active | Not Active | Not Active | Not Active | Not Active | Not Active | Not Active | – | – | – | – | –
14 | O=C(OC[C@H]1O[C@@H](OC(=O)c2cc(O)c(O)c(OC(=O)c3cc(O)c(O)c(O)c3)c2)[C@H](OC(=O)c2cc(O)c(O)c(OC(=O)c3cc(O)c(O)c(O)c3)c2)[C@@H](OC(=O)c2cc(O)c(O)c(OC(=O)c3cc(O)c(O)c(O)c3)c2)[C@@H]1OC(=O)c1cc(O)c(O)c(OC(=O)c2cc(O)c(O)c(O)c2)c1)c1cc(O)c(O)c(OC(=O)c2cc(O)c(O)c(O)c2)c1 [TANNIC ACID] | Not Active | Not Active | Not Active | Not Active | – | Not Active | Not Active | Not Active | 3130 | – | – | – | –
15 | CN1C(=O)OC(C)(C)C1=O [TRIMETHADIONE] | Not Active | Not Active | Not Active | Not Active | Not Active | Not Active | Not Active | Not Active | – | – | – | – | –
16 | Cc1cn([C@H]2C=C[C@@H](CO)O2)c(=O)[nH]c1=O [STAVUDINE] | Not Active | Not Active | Not Active | Not Active | Not Active | Not Active | Not Active | Not Active | – | – | – | – | –
17 | CN1C[C@H](CNC(=O)OCc2ccccc2)C[C@@H]2c3cccc4c3c(cn4C)C[C@H]21 [METERGOLINE] | Not Active | Not Active | Not Active | Not Active | Not Active | Not Active | Not Active | – | – | 189 | 27 | – | –
18 | CCN(CC)C(=S)SSC(=S)N(CC)CC | Not Active | Not Active | Not Active | Not Active | Not Active | Not Active | Not Active | Not Active | – | – | – | – | –
19 | Cc1cc2c(s1)Nc1ccccc1N=C2N1CCN(C)CC1 [OLANZAPINE] | – | – | Not Active | Not Active | Not Active | Not Active | Not Active | – | – | – | – | – | –
20 | CC(C)(C)NC[C@H](O)COc1cccc2c1CCCC2=O [LEVOBUNOLOL] | Not Active | Not Active | Not Active | Not Active | Not Active | Not Active | – | Not Active | – | – | – | 6.9 | 3.99
21 | Nc1nc(N)c2nc(-c3ccccc3)c(N)nc2n1 | Not Active | Not Active | Not Active | Not Active | Not Active | Not Active | Not Active | Not Active | – | – | – | – | –
22 | Cc1ccc(S(=O)(=O)NC(=O)NN2CCCCCC2)cc1 [TOLAZAMIDE] | Not Active | Not Active | Not Active | Not Active | Not Active | Not Active | Not Active | Not Active | – | – | – | – | –
23 | CCC(C)(C)C(=O)O[C@H]1C[C@@H](C)C=C2C=C[C@H](C)[C@H](CC[C@@H]3C[C@@H](O)CC(=O)O3)[C@H]21 [SIMVASTATIN] | Not Active | Not Active | Not Active | Not Active | – | Not Active | Not Active | Not Active | – | – | – | – | –
24 | CN(C)CCC=C1c2ccccc2COc2ccccc21 [DOXEPIN] | – | – | Not Active | Not Active | Not Active | Not Active | – | – | – | – | – | – | –
25 | CNCCCC12CCC(c3ccccc31)c1ccccc12 [MAPROTILINE] | – | – | Not Active | Not Active | Not Active | Not Active | Not Active | – | – | – | – | – | –
